Data on one compound can be found in US5231091A, “Bis-arylphosphate ester antagonists of platelet activating factor” (priority 1992, dated 1993).

For assay [1], the system named is endotoxin induced mortality. Kind of assay: Endotoxin induced shock and mortality in mice. It is filed as in vivo, mouse (male Balb/c). From the text:
The test compounds (PAF antagonists) were also efficacious when administered iv prior to a lethal iv injection of endotoxin (Table IX).

Assay [2] has as its target T1, PAF receptor (Homo sapiens, UniProt P25105).
T1 construct: Blood from healthy volunteers was collected; endogenous in cells; host or cells: human platelets (healthy volunteers)
Kind of assay: Inhibition of PAF-induced aggregation in human platelet rich plasma. It is filed as cell-based. As to conditions: PAF challenge 1E-6M, number of experiments in parentheses. On the procedure:
(§1) Test compounds were evaluated as PAF receptor antagonists in vitro by measuring inhibition of PAF (platelet activating factor) induced platelet aggregation. Platelet aggregation was measured by a modification of the method described in A. Wissner, et. al., J. Med. Chem., 27, 1174, 1984.
(§2) L-PAF was obtained from Calbiochem. A stock solution of 1-2 E-3M was prepared in 10% ethanol in water or 100% methanol and serial working dilutions were made using phosphate buffered saline (PBS). 1-2 E-3M stock solutions of test compounds were prepared in 100% methanol and serially diluted in PBS. All solutions were made up in plastic tubes, stored on ice and protected from heat and light. Solutions were prepared fresh or frozen at -20° C. and used within 48 hours.
(§3) Incubation mixtures consisted of 400 μl PRP, 50 μl of PBS diluent or test compound and 50 μl of PAF agonist. More specifically, 400 μl of PRP was stabilized in a cuvette for 1-2 minutes at 37° C. in the aggregometer to achieve a stable baseline, then 50 μl of PBS or test compound, was added and incubated for 5 minutes before addition of the challenge concentration of PAF (final concentration of 5E-8M or 1E-7M, as determined from the dose response curve for PAF for that experiment). Aggregation was monitored for 5 minutes. Samples containing test compound or diluent were run simultaneously for comparison. Test compounds were initially evaluated at a screening concentration of 1E-5M.
(§4) The recording equipment consisted of a dual channel Chronolog aggregometer connected to a dual channel 10 MV full scale deflection Omniscribe chart recorder (Houston Instruments). […] The bead suspension was used to set the 0% light transmission mark and clear water was used to set the 100% light transmission mark. These limits defined a full scale deflection. The aggregation traces were analyzed by a digitizing method (C. Kohler and B. Zoltan, J. Pharm. Methods, 12, 113, 1984) with x, y coordinate data stored in a computer file. A suitable program computed parameters of interest such as the magnitude of aggregation.
In some experiments, human PRP was used instead of rabbit PRP. Blood from healthy volunteers was collected in Vacutainers® containing the Na citrate diluent and processed in a manner similar to rabbit blood to obtain the PRP. For these experiments, the challenge concentration of PAF was 1E-6M.

Assay [3] deals with T2, PAF receptor (Oryctolagus cuniculus, UniProt G1TEI7).
T2 construct: endogenous in cells; host or cells: rabbit platelets (male New Zealand White)
T2 sequence (G1TEI7 1-342): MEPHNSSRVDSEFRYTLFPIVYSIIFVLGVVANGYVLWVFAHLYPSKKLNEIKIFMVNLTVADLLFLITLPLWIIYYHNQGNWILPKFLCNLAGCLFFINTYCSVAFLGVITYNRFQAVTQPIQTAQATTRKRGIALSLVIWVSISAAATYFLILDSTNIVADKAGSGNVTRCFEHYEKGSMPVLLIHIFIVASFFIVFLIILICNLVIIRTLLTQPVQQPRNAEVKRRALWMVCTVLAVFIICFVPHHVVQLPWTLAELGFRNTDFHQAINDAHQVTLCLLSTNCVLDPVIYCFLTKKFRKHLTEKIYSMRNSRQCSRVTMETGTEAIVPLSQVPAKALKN
The assay is described as follows: Inhibition of PAF-induced aggregation in rabbit platelet rich plasma. It is filed as cell-based, rabbit (male New Zealand White). As to conditions: rabbit platelet rich plasma; PAF challenge 5E-8M; number of experiments in parentheses; read-out: IC50 inhibition of PAF-induced aggregation. On the procedure: as §1
Approximately 120-240 ml of blood were collected by cardiac puncture from unanesthetized male New Zealand White rabbits (Whaley's Summit View Farms, Belvedere, N.J.) with the use of 3.2% sodium citrate anticoagulant (1 part of citrate/10 parts of blood). All syringes and pipets were plastic. The blood was gently mixed and immediately centrifuged at 800 rpm for 10-15 minutes at room temperature to recover the platelet rich plasma (PRP). Platelet poor plasma (PPP) was prepared by centrifuging PRP at 2800 rpm for 10 minutes at room temperature.
Dilutions (1:3000) of PRP in Isoton® diluent were made and platelet counts were determined on a Coulter Thrombocounter which was standardized with platelet reference standards (Interscience Platelet Control, Portland, Oreg.). PRP platelet counts were adjusted to approximately 400,000-500,000 platelets/μl by the addition of PPP.
as §2, §3, §4

A further assay relates to LPS induced hypotension. Kind of assay: Endotoxin (LPS) induced hypotension in rats. The class given is in vivo, rat (male Wistar). As to conditions: anesthetized rats; 10 ug/kg intraarterially 5 minutes after LPS 15 mg/kg I.V. On the procedure: Bacterial cell wall lipopolysaccharide from E. coli strain 0111:B4 (Sigma #L-2630) was dissolved in saline at a concentration of 3.75 mg/ml and administered to rats at 15 mg/kg I.V. Test compounds were dissolved in saline at 1 mg/ml, diluted to 10 ug/ml, and injected intraarterially at 1 ml/kg (10 ug/kg). Male wistar strain rats were obtained from Charles River Labs and maintained according to ALAC standards. They were anesthetized with 30 mg/kg pentobarbital ip with supplementation as needed. The throat was opened, the left carotid artery was cannulated with PE-10 tubing and the trachea cannulated with 0.100 O.D. tubing. Ventilation was maintained by a Harvard Apparatus small animal pump at a rate sufficient to nearly abolish spontaneous respiration.

Assay [4] concerns the target T2, PAF receptor. The assay is described as follows: Inhibition of PAF-induced aggregation in washed rabbit platelets. It is filed as cell-based. As to conditions: PAF challenge 5E-9M, number of experiments in parentheses. On the procedure:
as §1, §2
More specifically, […] for 1-2 minutes at 37° C. in the aggregometer to achieve a stable baseline, then 50 μl of PBS or test compound, was added and incubated for 5 minutes before addition of the challenge concentration of PAF (final concentration of 5E-8M or 1E-7M, as determined from the dose response curve for PAF for that experiment). Aggregation was monitored for 5 minutes. Samples containing test compound or diluent were run simultaneously for comparison. Test compounds were initially evaluated at a screening concentration of 1E-5M. […]

By IC50 is commonly meant the concentration at which inhibition is half-maximal.

Each structure is given as a SMILES string. Counter-ions that a name gives are not always drawn.

T1 sequence (P25105 whole entry): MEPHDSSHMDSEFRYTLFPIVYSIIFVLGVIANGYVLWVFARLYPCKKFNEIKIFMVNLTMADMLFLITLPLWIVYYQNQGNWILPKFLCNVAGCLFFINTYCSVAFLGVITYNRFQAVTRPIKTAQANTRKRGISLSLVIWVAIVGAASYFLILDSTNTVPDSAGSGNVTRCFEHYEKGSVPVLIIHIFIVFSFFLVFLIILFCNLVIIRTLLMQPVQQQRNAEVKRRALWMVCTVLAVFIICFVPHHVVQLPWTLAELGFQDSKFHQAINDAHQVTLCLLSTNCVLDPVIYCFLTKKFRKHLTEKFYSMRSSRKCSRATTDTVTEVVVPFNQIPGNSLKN

For `CCCCCCCCCCCCCCOc1cccc(OP(=O)([O-])Oc2cccc(C[n+]3csc(C)c3)c2)c1OC` [3-[[3-[[Hydroxy[2-methoxy-3-(tetradecyloxy)phenoxy]-phosphinyl]oxy]phenyl]methyl]-5-methyl-thiazolium, hydroxide, inner salt], the “24 hour survival, treated” value in assay [1] (40 mg/kg IP 2 hours prior to IP endotoxin) is listed as 13/50. Besides, in assay [1] (Table IX, 20 mg/kg iv prior to iv endotoxin, footnote prints IP, control 3/40), the “Survival after 24 hrs., treated” value is 14/40. Moreover, the half-maximal inhibitory concentration (IC50) worked out at 31 µM on PAF receptor [2], 2.51 µM at PAF receptor [3] and 0.00549 µM at PAF receptor [4]. In addition, the “% reversal of LPS induced hypotension (fall in mean arterial pressure)” value with LPS induced hypotension was determined as 84%.
